Source: PMC4638363, “Linear Interaction Energy Based Prediction of Cytochrome P450 1A2 Binding Affinities with Reliability Estimation” (PLoS ONE, 2015)
Where two headings read alike, the source gives them in different places. Blank lines part the entries; values can stand above or below the molecule they belong to.

Legend:
[1] = target: T1, human CYP 1A2 (Homo sapiens, UniProt P05177); settings: for ΔG bind (inhouse): human, 10 min, pH 7.4
T1 sequence (P05177 1-516): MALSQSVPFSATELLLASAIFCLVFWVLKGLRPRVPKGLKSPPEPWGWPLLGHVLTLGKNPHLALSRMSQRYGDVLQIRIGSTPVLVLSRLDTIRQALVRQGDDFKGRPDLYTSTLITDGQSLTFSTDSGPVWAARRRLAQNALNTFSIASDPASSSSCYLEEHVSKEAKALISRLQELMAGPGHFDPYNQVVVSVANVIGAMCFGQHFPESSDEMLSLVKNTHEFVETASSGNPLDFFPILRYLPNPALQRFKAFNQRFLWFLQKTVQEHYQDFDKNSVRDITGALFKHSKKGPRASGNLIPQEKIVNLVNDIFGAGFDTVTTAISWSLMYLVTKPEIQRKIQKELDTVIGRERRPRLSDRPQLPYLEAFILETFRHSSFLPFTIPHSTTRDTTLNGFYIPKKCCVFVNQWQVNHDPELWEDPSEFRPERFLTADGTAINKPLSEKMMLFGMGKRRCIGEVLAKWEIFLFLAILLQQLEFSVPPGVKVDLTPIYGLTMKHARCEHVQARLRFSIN

[2] = target: T1, human CYP 1A2
[3] = system: CYP 1A2; settings: cited from earlier work
[4] = system: CYP 1A2; settings: cited from earlier work; remark: listed apart in the source
[5] = target: T1, human CYP 1A2; test: in-house CYP 1A2 inhibition assay with 7-methoxyresorufin as substrate (resorufin fluorescence); settings: for ΔΔG bind: difference in ΔG bind between literature and in-house determined values; for ΔG bind (inhouse): from in-house IC50 via Cheng-Prusoff and RTln(Ki)
[6] = system: CYP 1A2; test: Source 1: Bayer HealthCare screen, phenacetin as substrate probe on pooled human liver microsomes; settings: for ΔG bind (lit): from literature IC50, Source 1 (Ref. 57); for ΔGbind^Obs: from literature IC50, Source 1
[7] = system: CYP 1A2; settings: human
[8] = system: CYP 1A2; settings: for ΔG bind (lit): from literature IC50, Source 2 (Ref. 58); for ΔGbind^Obs: training set, from literature IC50, Source 2
[9] = system: CYP 1A2; settings: cited from earlier work; remark: listed apart in the source
[10] = system: recombinant CYP 1A2; settings: human
[11] = system: recombinant CYP 1A2; settings: recombinant enzyme; cited from earlier work
[12] = read-out: IC 50 (lit), Source 1, pooled human liver microsomes, phenacetin probe
[13] = Table A, Source 1, ref Bayer HealthCare databases for CYP inhibition (eTOX)
[14] = read-out: IC 50 (lit), Source 2, recombinant CYPs, phenacetin O-deethylation
[15] = Table A, Source 2, ref Cohen et al., Drug Metab. Dispos. 2003

- K m [1]: 2.5 µM
SMILES: COc1ccc2nc3ccc(=O)cc-3oc2c1 [7-Methoxyresorufin]

SMILES: Cc1cccc(Nc2ccccc2C(=O)O)c1C [Compound 1, Mefenamic Acid]
- Residual (ΔGbind^Obs—ΔGbind^Calc) ([2]; training set): 4.3 kJ/mol
- IC50 [3, 12]: 14 µM
- Reported inhibition mechanism ([4]; literature): Competitive^60
- IC50 [5]: 19 ± 7 µM
- ΔΔG bind [5]: -0.8 kJ/mol
- ΔG bind (inhouse) [5]: -28.9 ± 1.0 kJ/mol
- ΔG bind (lit) [6]: -29.7 kJ/mol
- ΔGbind^Obs ([6]; training set): -29.7 kJ/mol

SMILES: Nc1c2c(nc3ccccc13)CCCC2 [Compound 2, Tacrine]
- ΔΔG bind [1]: 2.1 kJ/mol
- ΔG bind (inhouse) [1]: -34.2 ± 1.2 kJ/mol
- ΔG bind (lit) [7]: -32.1 kJ/mol
- ΔGbind^Obs [7]: -32.2 kJ/mol
- Residual (ΔGbind^Obs—ΔGbind^Calc) [2]: -2.8 kJ/mol
- IC50 ([3]; microsomes): 5.2 µM
- Reported inhibition mechanism [4]: Substrate^61
- IC50 [5]: 2.3 ± 1 µM

SMILES: COc1ccccc1OCCNCC(O)COc1cccc2[nH]c3ccccc3c12 (centres unmarked) [Compound 3, Carvedilol]
- IC50 [3, 13]: 5.1 µM
- IC50 [3, 12]: 5.91 µM
- Reported inhibition mechanism ([4]; literature): Substrate^62
- IC50 [5]: 5 ± 0.2 µM
- ΔΔG bind [5]: 0.4 kJ/mol
- ΔG bind (inhouse) [5]: -32.2 ± 0.1 kJ/mol
- ΔG bind (lit) [6]: -31.8 kJ/mol

SMILES: Cc1c2ccncc2c(C)c2c1[nH]c1ccccc12 [Compound 5, Ellipticine]
- ΔG bind (lit) [8]: -41.8 ± 0.2 kJ/mol
- IC50 [9, 14]: 110 ± 10 nM
- IC50 [5]: 0.007 ± 0.002 µM
- ΔΔG bind [5]: 6.9 kJ/mol
- ΔG bind (inhouse) [5]: -48.7 ± 0.7 kJ/mol

SMILES: CCOc1ccc(NC(C)=O)cc1 [Compound 6, Phenacetin]
- Reported inhibition mechanism ([4]; literature): Substrate^64

SMILES: O=c1cc(-c2ccccc2)oc2c1ccc1ccccc12 [Compound 7, alpha-Naphthoflavone]
- Reported inhibition mechanism ([4]; literature): Competitive/uncompetitive^65

SMILES: Clc1ccccc1CN1CCc2sccc2C1 [Compound 8, Ticlopidine]
- Reported inhibition mechanism ([4]; literature): Competitive^66

SMILES: Oc1ccc2ccccc2c1 [Compound 10, 2-naphthol]
- ΔΔG bind [1]: 3.4 kJ/mol
- ΔG bind (inhouse) [1]: -32.6 ± 0.7 kJ/mol
- ΔG bind (lit) [10]: -29.1 ± 0.2 kJ/mol
- ΔGbind^Obs [10]: -29.1 kJ/mol
- Residual (ΔGbind^Obs–ΔG bind ^Calc), error in prediction [2]: -6.5 kJ/mol
- IC50 [11]: 17 ± 1.5 µM
- IC50 [5]: 4.4 ± 1.2 µM

SMILES: O=c1c(O)c(-c2ccc(O)c(O)c2)oc2cc(O)cc(O)c12 [Compound 14, Quercetin]
- Reported inhibition mechanism ([4]; literature): Competitive^67

- Residual (ΔGbind^Obs—ΔGbind^Calc) ([2]; training set): 2.9 kJ/mol
- ΔGbind^Obs ([6]; training set): -30.2 kJ/mol
SMILES: O=C(O)c1cccnc1Nc1cccc(C(F)(F)F)c1 [Compound 16, Niflumic Acid]
- IC50 [3, 13]: 11.6 µM

- ΔGbind^Obs ([6]; test set): -30.0 kJ/mol
SMILES: O=C1C[C@@H](c2ccc(O)cc2)Oc2cc(O)cc(O)c21 [Compound 17, Naringenin]
- IC50 [3, 13]: 12.3 µM
- Reported inhibition mechanism ([4]; literature): Substrate^68

SMILES: C[C@]12CC[C@@H]3c4cc(F)c(O)cc4CC[C@H]3[C@@H]1CC[C@@H]2O [Compound 20, 2-Fluoroestradiol]
- Residual (ΔGbind^Obs–ΔG bind ^Calc), error in prediction ([2]; test set): 7.0 kJ/mol
- IC50 [3, 13]: 26.8 µM
- ΔGbind^Obs ([6]; test set): -28.1 kJ/mol

- ΔGbind^Obs [8]: -34.8 kJ/mol
- Residual (ΔGbind^Obs—ΔGbind^Calc) ([2]; training set): -7.8 kJ/mol
SMILES: Cc1cccc(C)c1OCC(C)N (centres unmarked) [Compound 23, Mexiletine]
- IC50 [9, 15]: 1840 nM
- Reported inhibition mechanism ([4]; literature): Competitive^70

SMILES: Cc1nc2c([nH]1)c(=O)n(C)c(=O)n2Cc1ccco1 [Compound 24, Furafylline]
- Reported inhibition mechanism ([4]; literature): Mechanism-based^71

- ΔGbind^Obs [8]: -32.9 kJ/mol
- Residual (ΔGbind^Obs—ΔGbind^Calc) ([2]; training set): -1.1 kJ/mol
SMILES: CC(C)NCC(O)COc1cccc2ccccc12 (centres unmarked) [Compound 25, Propranolol]
- IC50 [9, 15]: 3840 nM
- Reported inhibition mechanism ([4]; literature): Substrate^72
